ChEMBL document CHEMBL3272056, “Synthesis of N-hydroxythiourea” (J Med Chem, 1976)
The source made the active and inactive calls. The rule behind the calls is not given here.

System: L1210
Test: Antitumor activity against mouse L1210 cells at 400 mg/kg, ip
Type: functional, organism-based
Design: dose 400 mg/kg

## NC(=S)NO
  Activity: inactive
